Values joined by “and” are separate entries in the source; they are usually repeats but may differ in a detail not shown here. Equal entries are not always repeated.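 In this assay, cells in 96-well plates receive the compound at five concentrations for 48 hours. Endpoints are linearly interpolated between the surrounding concentrations. Here, GI50 denotes the concentration required for 50% inhibition of growth. TGI is the concentration that stops growth completely.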
Legend:
Experiment in all cases: NCI-60 cell line screen, 48 h
COLO 205 colon = system: COLO 205 colon
HCC-2998 colon = system: HCC-2998 colon
HL-60(TB) leukemia = system: HL-60(TB) leukemia
HOP-92 NSCLC = system: HOP-92 NSCLC
NCI-H23 lung = system: NCI-H23 lung
SK-OV-3 ovarian = system: SK-OV-3 ovarian
U251 CNS = system: U251 CNS
BT-549 breast = system: BT-549 breast
DU-145 prostate = system: DU-145 prostate
MDA-MB-435 = system: MDA-MB-435

CC(C)=CC(=O)Oc1ccc([N+](=O)[O-])cc1
TGI (COLO 205 colon): > 100 µM | TGI (HCC-2998 colon): > 100 µM | TGI (HL-60(TB) leukemia): 59.5 µM | TGI (HOP-92 NSCLC): > 100 µM | TGI (NCI-H23 lung): > 100 µM | TGI (SK-OV-3 ovarian): > 100 µM | TGI (U251 CNS): > 100 µM

FC(F)(F)c1cccc(COCCN2CCN(Cc3cccc(C(F)(F)F)c3)CC2)c1
TGI (BT-549 breast): 29.6 µM | TGI (COLO 205 colon): 42.3 µM | TGI (DU-145 prostate): 32.4 µM | TGI (HCC-2998 colon): 32.7 µM | TGI (HL-60(TB) leukemia): > 100 µM | TGI (NCI-H23 lung): 41.1 µM | TGI (SK-OV-3 ovarian): 31.1 µM | TGI (U251 CNS): 34.5 µM

CC(=O)C1CC2(c3ccc(C)cc3)C(c3ccc(C)cc3)=C(c3ccc(C)cc3)C1(c1ccc(C)cc1)S2=O (stereo unspecified)
GI50 (BT-549 breast): > 100 µM | TGI (BT-549 breast): > 100 µM | GI50 (COLO 205 colon): > 100 µM | TGI (COLO 205 colon): > 100 µM | GI50 (DU-145 prostate): > 100 µM | TGI (DU-145 prostate): > 100 µM | GI50 (HCC-2998 colon): > 100 µM | TGI (HCC-2998 colon): > 100 µM | GI50 (MDA-MB-435): > 100 µM | TGI (MDA-MB-435): > 100 µM | GI50 (NCI-H23 lung): > 100 µM | TGI (NCI-H23 lung): > 100 µM | GI50 (SK-OV-3 ovarian): > 100 µM | TGI (SK-OV-3 ovarian): > 100 µM | GI50 (U251 CNS): > 100 µM | TGI (U251 CNS): > 100 µM

COc1ccc2nc(-c3ccccc3)cc(Nc3ccc(C(C)=O)cc3)c2c1
GI50 (BT-549 breast): 15.3 µM | TGI (BT-549 breast): 37.5 µM | GI50 (COLO 205 colon): 16.4 µM | TGI (COLO 205 colon): > 100 µM | GI50 (DU-145 prostate): 14.1 µM | TGI (DU-145 prostate): 27.1 µM | GI50 (HCC-2998 colon): 2.45 µM | TGI (HCC-2998 colon): 5.27 µM | GI50 (NCI-H23 lung): 3.51 µM | TGI (NCI-H23 lung): 11.9 µM | GI50 (SK-OV-3 ovarian): 16.1 µM | TGI (SK-OV-3 ovarian): 36.9 µM | GI50 (U251 CNS): 2.46 µM | TGI (U251 CNS): 10.8 µM

COC(=O)NC/C=C\c1nc(CC/C=C\C(=O)OC2CC3CC(=O)O[C@H](/C=C/CC(C)C)C[C@H]4CCC(C)C(C[C@H](OC)CC(C2)O3)O4)co1 (stereo partly specified)
GI50 (BT-549 breast): 0.016 µM | TGI (BT-549 breast): 2.95 µM | GI50 (COLO 205 colon): 1.1 µM | TGI (COLO 205 colon): > 100 µM | GI50 (DU-145 prostate): 1.54 µM | TGI (DU-145 prostate): > 100 µM | GI50 (SK-OV-3 ovarian): 63.9 µM | TGI (SK-OV-3 ovarian): > 100 µM | GI50 (U251 CNS): 1.42 µM | TGI (U251 CNS): > 100 µM

COC1/C(=C\C(=O)OC(C)(C)C)c2ccccc2N1C(C)=O (stereo unspecified)
TGI (COLO 205 colon): > 100 µM | TGI (HCC-2998 colon): > 100 µM | TGI (HL-60(TB) leukemia): > 100 µM | TGI (NCI-H23 lung): > 100 µM | TGI (SK-OV-3 ovarian): > 100 µM | TGI (U251 CNS): > 100 µM

CC(=O)NC1=C(Nc2ccc(C)cc2)C(=O)c2ccccc2C1=O
TGI (COLO 205 colon): 45.3 µM | TGI (HCC-2998 colon): > 75 µM | TGI (HL-60(TB) leukemia): 41.1 µM | TGI (NCI-H23 lung): 19.6 µM | TGI (SK-OV-3 ovarian): > 75 µM | TGI (U251 CNS): > 75 µM

C=C1C(=O)O[C@@H]2C1C[C@@H](O)/C(C)=C/C/C=C(\C)CCC[C@H](C)[C@H]2OC(C)=O (stereo partly specified)
GI50 (BT-549 breast): 20 µM | TGI (BT-549 breast): 39.1 µM | GI50 (COLO 205 colon): 40.4 µM | TGI (COLO 205 colon): > 100 µM | GI50 (DU-145 prostate): 20.4 µM | TGI (DU-145 prostate): 45.4 µM | GI50 (HCC-2998 colon): 31.7 µM | TGI (HCC-2998 colon): > 100 µM | GI50 (MDA-MB-435): 24.4 µM | TGI (MDA-MB-435): 58 µM | GI50 (NCI-H23 lung): 27.1 µM | TGI (NCI-H23 lung): 86.2 µM | GI50 (SK-OV-3 ovarian): 69.3 µM | TGI (SK-OV-3 ovarian): > 100 µM | GI50 (U251 CNS): 23.8 µM | TGI (U251 CNS): 52.4 µM

O=C(O)c1c2c(c(C(=O)O)c3ccccc13)-c1ccccc1-2
TGI (COLO 205 colon): > 100 µM | TGI (HCC-2998 colon): > 100 µM | TGI (HL-60(TB) leukemia): > 100 µM | TGI (HOP-92 NSCLC): 71.9 µM | TGI (NCI-H23 lung): > 100 µM | TGI (SK-OV-3 ovarian): 94.8 µM | TGI (U251 CNS): > 100 µM

COC(=O)/C=C(C)/C=C/c1cc(C(C)=O)c(C)o1
TGI (HCC-2998 colon): > 100 µM | TGI (HL-60(TB) leukemia): > 100 µM | TGI (HOP-92 NSCLC): > 100 µM | TGI (NCI-H23 lung): > 100 µM | TGI (SK-OV-3 ovarian): > 100 µM | TGI (U251 CNS): > 100 µM

CC(=O)[CH-]C(=O)c1ccccc1.CC(=O)[CH-]C(=O)c1ccccc1.CC(=O)[CH-]C(=O)c1ccccc1.[Tl+3]
GI50 (COLO 205 colon): 25.9 µM | TGI (COLO 205 colon): 97.7 µM | GI50 (HCC-2998 colon): 37.5 µM | TGI (HCC-2998 colon): > 100 µM | GI50 (HL-60(TB) leukemia): 4.83 µM | TGI (HL-60(TB) leukemia): 16.9 µM | GI50 (HOP-92 NSCLC): 40.6 µM | TGI (HOP-92 NSCLC): > 85.7 µM | GI50 (NCI-H23 lung): 45.4 µM | TGI (NCI-H23 lung): > 100 µM | GI50 (SK-OV-3 ovarian): > 61.8 µM | TGI (SK-OV-3 ovarian): > 100 µM | GI50 (U251 CNS): 42.6 µM | TGI (U251 CNS): > 100 µM

CCOC(=O)Cc1csc(/N=C2\NC(=O)/C(=C3\C(=O)N(C)c4ccccc43)S2)n1
GI50 (BT-549 breast): 48.4 µM | TGI (BT-549 breast): > 100 µM | GI50 (COLO 205 colon): 48.7 µM | TGI (COLO 205 colon): > 100 µM | GI50 (DU-145 prostate): 41.4 µM | TGI (DU-145 prostate): > 100 µM | GI50 (HCC-2998 colon): 46.1 µM | TGI (HCC-2998 colon): > 100 µM | GI50 (HOP-92 NSCLC): 52.3 µM | TGI (HOP-92 NSCLC): > 100 µM | GI50 (MDA-MB-435): 36.6 µM | TGI (MDA-MB-435): > 100 µM | GI50 (NCI-H23 lung): 48 µM | TGI (NCI-H23 lung): > 100 µM | GI50 (SK-OV-3 ovarian): > 100 µM | TGI (SK-OV-3 ovarian): > 100 µM | GI50 (U251 CNS): 33.6 µM | TGI (U251 CNS): > 100 µM

CCOC(=O)/C(=C\c1ccc(OCc2ccccc2)c(OC)c1)C(=O)c1ccccc1
TGI (COLO 205 colon): 99.2 µM | TGI (HCC-2998 colon): > 100 µM | TGI (HL-60(TB) leukemia): 49 µM | TGI (NCI-H23 lung): 35.2 µM | TGI (SK-OV-3 ovarian): > 100 µM | TGI (U251 CNS): 31.1 µM

CCOc1cc2c(cnc3c4cc(OC)c(OC)cc4ccc23)cc1OC
TGI (COLO 205 colon): > 100 µM | TGI (HCC-2998 colon): > 100 µM | TGI (NCI-H23 lung): > 100 µM | TGI (SK-OV-3 ovarian): > 100 µM | TGI (U251 CNS): > 100 µM

COc1ccc2c([nH]c3cc(O)c(C)cc32)c1C=O
TGI (COLO 205 colon): > 25 µM | TGI (HCC-2998 colon): > 25 µM | TGI (HL-60(TB) leukemia): > 25 µM | TGI (HOP-92 NSCLC): > 25 µM | TGI (SK-OV-3 ovarian): > 25 µM | TGI (U251 CNS): > 25 µM

N/N=C(\CC1OC(=O)c2ccccc21)c1ccco1 (stereo unspecified)
TGI (COLO 205 colon): > 100 µM | TGI (HCC-2998 colon): > 100 µM | TGI (HL-60(TB) leukemia): > 100 µM | TGI (HOP-92 NSCLC): > 100 µM | TGI (NCI-H23 lung): > 100 µM | TGI (SK-OV-3 ovarian): > 100 µM

COc1ccc(C(=O)C(c2ccc(OC)cc2)C2(O)C(=O)Nc3c(C)cc(Cl)cc32)cc1 (stereo unspecified)
TGI (COLO 205 colon): > 100 µM | TGI (HCC-2998 colon): > 100 µM | TGI (HL-60(TB) leukemia): > 100 µM | TGI (HOP-92 NSCLC): > 100 µM | TGI (NCI-H23 lung): > 100 µM | TGI (SK-OV-3 ovarian): > 100 µM | TGI (U251 CNS): > 100 µM

CC1(CO)OC1COCc1ccccc1 (stereo unspecified)
TGI (COLO 205 colon): > 100 µM | TGI (HL-60(TB) leukemia): > 100 µM | TGI (HOP-92 NSCLC): > 100 µM | TGI (NCI-H23 lung): > 100 µM | TGI (SK-OV-3 ovarian): > 100 µM | TGI (U251 CNS): > 100 µM

CC(=O)OCSc1ncnc2c1ncn2CN1CCOCC1
TGI (COLO 205 colon): 53.1 µM | TGI (HCC-2998 colon): > 100 µM | TGI (HL-60(TB) leukemia): > 100 µM | TGI (HOP-92 NSCLC): > 100 µM | TGI (NCI-H23 lung): 53.2 µM | TGI (SK-OV-3 ovarian): > 100 µM | TGI (U251 CNS): > 100 µM

O=C(CNC(=O)OCc1ccccc1)Oc1ccccc1
TGI (COLO 205 colon): > 100 µM | TGI (HCC-2998 colon): > 100 µM | TGI (HL-60(TB) leukemia): > 100 µM | TGI (HOP-92 NSCLC): > 100 µM | TGI (NCI-H23 lung): > 100 µM | TGI (SK-OV-3 ovarian): > 100 µM | TGI (U251 CNS): > 100 µM

COc1cc2c(c(OC)c1OC)-c1ccc(SC)c(=O)cc1[C@@H](NC(=O)c1ccc(OC(C)=O)cc1)CC2
TGI (COLO 205 colon): 0.0405 µM | TGI (HCC-2998 colon): 0.0549 µM | TGI (HL-60(TB) leukemia): 20.5 µM | TGI (HOP-92 NSCLC): 0.0311 µM | TGI (NCI-H23 lung): 0.049 µM | TGI (SK-OV-3 ovarian): 0.0683 µM and 0.0201 µM | TGI (U251 CNS): 0.0544 µM

C1CNCCNCCNCCN1
TGI (COLO 205 colon): > 100 µM | TGI (HCC-2998 colon): > 100 µM | TGI (HL-60(TB) leukemia): > 100 µM | TGI (NCI-H23 lung): > 100 µM | TGI (SK-OV-3 ovarian): > 100 µM | TGI (U251 CNS): 81.5 µM
